Values after ≈ are worked out from the molar mass of the structure shown. Like-named read-outs stand apart in the source and are kept apart here. Where no end group is shown, it is not given here.
How the values were obtained:
[1] = test system: PC3 human prostate carcinoma cell line; test: EDR assay, PC3 (storage stability of stock solutions); assay type: cell-based
Protocol: (§1) The PC3 prostate carcinoma, as well as the MCF7-WT and SK-BR3 breast carcinoma cell lines were obtained from ATCC and maintained in RPMI 1640 (GibcoBRL, Grand Island, N.Y.) supplemented with 10% fetal bovine serum (FBS, Omega Scientific, Tarzana, Calif.), 100 IU/ml penicillin, 100 μg/ml streptomycin, and 2 mM L-glutamine (Irvine Scientific, Irvine, Calif.) (complete growth medium). Cells were harvested with 0.25% trypsin (GibcoBRL) after washing twice with phosphate-buffered saline (PBS, Irvine Scientific), then washed with complete medium, counted and checked for viability using trypan blue. Different passages of the cell line were tested for their resistance to WL68-DXR vs. native doxorubicin to evaluate the stability of WL68-DXR under storage at −70° C. […]
(§2) 103 mg of 20 KD mpPEG-8PA-WL68-DXR (further referred to as WL-68-DXR) was dissolved in 10.3 ml of sterile PBS, aliquoted in plastic 1 ml tubes and kept at −70° C. until analysis. […] Positive controls were determined using at least 2 wells treated with an extremely high dose of cisplatin. […]
(§3) Cells were incubated with drugs under standard culture conditions for five days. […] The radioactivity trapped on the filters was counted with a Beckman scintillation counter. The fraction of surviving cells was determined by comparing ^3H-TdR incorporation in treated (experimental points) and untreated (negative control) wells. […]

[2] = test system: human T lymphoma cell line HUT 78; test: In vitro cytotoxicity assay (MTS), HUT 78; assay type: cell-based; settings: HuT78, 48 h, DXR equivalent concentration, about two days incubation, read-out: IC50 against HUT 78
Protocol: (§4) On the day prior to starting the assay, cells were fed with fresh tissue culture medium (RPMI 1640+10% FCS for most cell lines, use other media as appropriate). A conjugate test solution was prepared in culture medium, with a concentration that is twice the final desired test concentration. Typically with doxorubicin (DXR) conjugates, a DXR equivalent concentration range of 100 μM down to 0.1 μM, using 1:2 serial dilutions is used. All concentrations are calculated and reported in terms of final DXR concentration (as opposed to total conjugate concentration).
(§5) The cell suspension is prepared at a concentration of 1-2×10^6 cells/Ml in culture medium. To each well of a 96-well, flat-bottom, microtiter plate (Falcon Microtest III assay plates, No. 3872) was added 50 μl of the cell suspension prepared above. A 50 μl of conjugate solution was added to each well of the assay plate. […]
(§6) The following blank and control wells were prepared: Plate Blank=100 μl of tissue culture medium only; cell control=50 μl cell suspension+50 μl tissue culture medium; and conjugate Blanks=50 μl 2× conjugate solution +50 μl tissue culture medium. […] Using a 96-well microplate reader, the absorbance of each well was measured at 490 nm. For each conjugate test concentration, the % cytotoxicity was calculated using the following formula: % Cytotoxicity=(1−[Abs. Conjugate Test Group/Abs. Cell Control])×100.

[3] = test system: human ovarian cancer cell line A-2780R tumor; test: In vivo efficacy, murine tumor model of subcutaneously implanted A-2780R; settings: 30 mg/kg
Protocol: Efficacy of mpPEG-WL00-DXR conjugate was also compared with DOXIL® in a murine tumor model generated by subcutaneously implanting human ovarian cancer cell line A-2780R. […] At day 21, the tumor growth inhibition in the animal treated with TM 1192-029-1 animal was 92%. The unconjugated DXR at 30 mg/kg gave 70% tumor growth inhibition.

[4] = test system: human ovarian cancer cell line A-2780R; test: In vitro cytotoxicity assay (MTS), A-2780R; assay type: cell-based; settings: DXR equivalent concentration, read-out: IC50 against A-2780R
Protocol: as §4, §5, §6

[5] = test system: SK-BR3 (HER-2 positive) breast carcinoma cell line; test: EDR assay, SK-BR3; assay type: cell-based; settings: Homo sapiens, SK-BR-3, 120 h; 5 days of incubation
Protocol: as §1, §2, §3

[6] = test system: HER-2-negative fresh breast carcinoma specimens; test: EDR assay, HER-2-negative fresh breast carcinoma specimens; assay type: cell-based; settings: Homo sapiens, nine specimens
Protocol: (§7) Tumor cells were suspended in 0.12% soft agar in complete medium, and plated at different cell concentrations (typically, 3,000 cells for the cell lines and 15,000 cells per well for fresh tumor specimens) onto a 0.4% agarose underlayer in 24-well plates. Plating cells on agarose underlayers supports the proliferation only of the transformed cells, ensuring that the growth signal stems from the malignant component of the tumor.
as §2, with “analysis. The doxorubicin equivalent for the WL68-DXR stock solution was 4.06 μg/ml.” for “analysis.”
as §3
(§8) A monoclonal antibody against HER-2 (clone 4E200) was purchased from Neomarkers, Inc. (Fremont, Calif.) and used at 1 μg/ml. Optimal working concentrations and incubation time for the HER-2 antibody have been determined in preliminary experiments. […]

HUT 78 tumor = test: In vivo efficacy, murine model of human cutaneous T-cell lymphoma (HUT 78)
Protocol: In vitro cytotoxicity against human T-cell lymphoma cell line HUT 78 and human ovarian cancer cell lines A-2780R, as well as in vitro screening on several fresh human tumor specimens from different types of cancer were evaluated. The in vivo efficacy was determined using murine models for human cutaneous T-cell lymphoma. Free doxorubicin and liposomal doxorubicin (DOXIL®) were used as controls for the experiments. The “WL00” moiety comprises the GFLG peptide (SEQ ID NO 1).
The efficacy of mpPEG-WL00-DXR in vivo was also evaluated. A single dose treatment of 30 mg/kg was used for the conjugate and DOXIL®, whereas 15 mg/kg (equivalent doxorubicin dose) was used for unconjugated DXR. […] The percent tumor growth inhibition at day 15 for CA 1043-136, TM 1192-029-1 and TM 1192-038 was 84, 79 and 84, respectively.
In addition, a DXR conjugate with 8.7% DXR loading (TM 1192-107-1) was evaluated in both human T-lymphoma cell line HUT 78 and ovarian cancer cell line A-2780R animal tumor model. […] It is also worth noting that the conjugate CA 1043-36 was very active after two years of storage as a lyophilized powder at 4° C.

[7] = test system: HER-2-positive fresh breast carcinoma specimens; test: EDR assay, HER-2-positive fresh breast carcinoma specimens; assay type: cell-based; settings: Homo sapiens, read-out: IC50, HER-2-positive group
Protocol: as §7
as §2, with “analysis. The doxorubicin equivalent for the WL68-DXR stock solution was 4.06 μg/ml.” for “analysis.”
as §3, §8

[8] = Body distribution of DXR in mice bearing HuT 78 xenografts; assay type: in vivo, NIH III mice; settings: 2.5 mg/kg, 72 hours
Protocol: NIH III mice bearing HuT 78 xenografts were administered with conjugated DXR and free DXR at a dose of 2.5 mg/kg of DXR equivalent. After 72 hours, the mice were sacrificed and tissue samples were prepared for analysis for free or total DXR.
The total amount of DXR was determined after hydrolysis of free and conjugated DXR to generate aglycon. The amount of bound conjugate was computed as the difference between total and free DXR.

[9] = test system: MCF7-WT (HER-2 negative) breast carcinoma cell line; test: EDR assay, MCF7-WT; assay type: cell-based; settings: Homo sapiens, 120 h, 5 days of incubation
Protocol: as §1, §2, §3

[10] = target: T1, HER-2 receptor (human epidermal growth factor receptor-2) (human, UniProt P04626 23-1255); test: 125I-labelled peptide binding to SK-Br3 cells in suspension, cell-bound counts (Example 17)
T1 construct: whole, on cells; Presented on the HER-2-positive SK-Br3 cell line; Raji cells served as the negative control; also called c-erbB-2; neu
Protocol: WL38 was iodinated by using lodo-Gen method described in herein. Unbound ¹²⁵I was removed by ion-exchange chromatography with MP-1 resin, (BIO-RAD AG). SK-Br3 cells were removed from the flask bottom by the cell scraper, suspended, and centrifuged at 500×g for 1 min. The cell pellet was suspended in the binding buffer (50 mM PBS, 30 mM NaN₃, 0.5% BSA, pH 7.4). The cell suspension (100 μl) containing 500,000 cells were placed into a glass tube and incubated with ¹²⁵I-WL38 peptides at various concentrations. Unbound peptide was removed by centrifugation. Cells were dissolved in 1M NaOH, and applied for ¹²⁵I counting. Binding of the WL38 peptide to Raji cell which were used as a negative control was performed in a similar manner. Non-specific binding of the WL38 to A2870/R cells was determined on the background of unlabeled WL3 8 at concentration 100 μM.

**Q.** With `COc1cccc2c1C(=O)c1c(O)c3c(c(O)c1C2=O)C[C@@](O)(C(=O)CO)C[C@@H]3O[C@H]1C[C@H](N)[C@H](O)[C@H](C)O1` [unconjugated DXR, doxorubicin] as the molecule, how does the IC50 ([1]; 336 h, after two weeks of storage at −70° C., read-out: IC50, PC3, after freezing the stock solution) read?
**A.** 0.022 µg/mL (≈ 0.0405 µM)

**Q.** And the IC50 ([1]; read-out: IC50, PC3, before freezing the stock solution)?
**A.** 0.027 µg/mL (≈ 0.0497 µM)

**Q.** And the IC50 [2]?
**A.** 2.1 µM

**Q.** What about the tumor growth inhibition [3] of the same molecule?
**A.** 70%

**Q.** What about the IC50 [4] of the same molecule?
**A.** 14.2 µM

**Q.** And the IC50 [5]?
**A.** 0.03 ± 0.02 µg/mL (≈ 0.0552 µM)

**Q.** And the IC50 ([6]; average, read-out: IC50 (average), HER-2-negative breast carcinomas)?
**A.** 0.025 ± 0.025 µg/mL (≈ 0.046 µM)

**Q.** What about the IC50 ([6]; read-out: IC50 (span over specimens), HER-2-negative breast carcinomas) of the same molecule?
**A.** 0.004 to 0.083 µg/mL (≈ 0.00736 to 0.153 µM)

**Q.** What about the deaths (HUT 78 tumor; 15 mg/kg dose) of the same molecule?
**A.** one death out of four animals

**Q.** What about the survival of animals (HUT 78 tumor; HUT 78 tumor study, 30 mg/kg, study period 21 days) of the same molecule?
**A.** five out of five animals died within seven days

**Q.** What about the “mean tumor growth inhibition at day 15” value (HUT 78 tumor; single dose 15 mg/kg (equivalent doxorubicin dose)) of the same molecule?
**A.** 12%

**Q.** What about the IC50 [7] of the same molecule?
**A.** 0.019 ± 0.02 µg/mL (≈ 0.035 µM)

**Q.** What about the “DXR per gram in tumor, heart and muscle tissues” value [8] of the same molecule?
**A.** Approximately equal amounts

**Q.** What about the IC50 [9] of the same molecule?
**A.** 0.013 ± 0.004 µg/mL (≈ 0.0239 µM)

B1: WL38 peptide (MVKDLSNPSRYL) (peptide)
peptide: MVKDLSNPSRYL
modifications: also: 125I-iodinated, residue not given here
notes: Synthetic HER-2-targeting peptide; also called TT38; 125I-WL38
**Q.** Does B1 bind [10]?
**A.** binds

Source: patent US20030124742A1, “Conjugates targeted to target receptors” (priority 2001, published 2003)
